The results in this text go back to article PMC6113223 (2018).

The structures appear in SMILES notation.

In assay [1] the test system is Lee aptamer (56-mer) (DNA, aptamer) AGCAGCACAGAGGTCATGGGGGGTGTGACTTTGGTGTGCCTATGCGTGCTACGGAA
Nature of the assay: AuNP aggregation colorimetry (A650/A525), centrifugation and resuspension. The settings on record: 100 mM NaCl (Na+), added after target incubation, water, 5% ethanol in target solution, room temperature; for binding: tested at 600 nM.

Assay [2] concerns Random ssDNA (70-mer) (DNA, single strand) AGGCCTAAGGGCATAATTAGCTCGAGCTCGAAAGGGGTTATATGATGATTTGAATTCATGGGGCCCGACT
The assay is described as above. As to conditions: 100 mM NaCl (Na+), added after target incubation; water, 5% ethanol in target solution, room temperature; control; VTD3 series in Figures 2C and 3B.

Turning to `C=C1CC[C@H](O)C/C1=C/C=C1\CCC[C@]2(C)[C@@H]([C@H](C)/C=C/[C@H](C)C(C)C)CC[C@@H]12`, the binding result in assay [1] (concentration series in Figure 2C) is listed as “no”.

For `C[C@]12CC[C@@H]3c4ccc(O)cc4CC[C@H]3[C@@H]1CC[C@@H]2O`, the binding result in assay [1] was “no”.

With `C=C1CC[C@H](O)C/C1=C/C=C1\CCC[C@]2(C)[C@@H]([C@H](C)CCCC(C)C)CC[C@@H]12`, the “Kd, app” value in assay [1] (10 min, apparent, Langmuir fit, aptamer adsorbed on AuNP) worked out at 220 nM. In addition, in assay [2], the binding entry is on record as “no”.

As to `C[C@]12C=CC(=O)C=C1CC[C@@H]1[C@@H]2C(=O)C[C@@]2(C)[C@H]1CC[C@]2(O)C(=O)CO`, the binding entry in assay [1] is given as “no”.

As for `CC(=O)[C@H]1CC[C@H]2[C@@H]3CCC4=CC(=O)CC[C@]4(C)[C@H]3CC[C@]12C`, the binding entry in assay [1] is on record as “no”.
